Laboratory results as given in patent publication US11738088B2, “Boryl ethers, carbonates, and cyclic acetals as oxidatively-triggered drug delivery vehicles” (University of Pittsburgh—Of the Commonwealth System of …, priority 2016, dated 2023).

Assays:
[1] = Oxidative breakdown with urea.H2O2 monitored by 1H NMR; assay type: physicochemical; conditions: for yield of released product (1H NMR vs internal standard) / half-life: 6-12 equiv H2O2.urea, pH 8.0, CD3CN:D2O 5:1, rt; for half-life: H2O2.urea (6-12 equiv) in CD3CN:D2O 5:1, read-out: t1/2 (substrate consumption); for oxidative breakdown / cargo release (in words): in the presence of H2O2
Protocol: The oxidative breakdown of compounds 7 and 8 was achieved by subjecting them (˜25 mM) to urea.H2O2 (300 mM) in a mixture of CD3CN and aqueous (D2O) buffer (pH=8.0). The buffer was selected to mimic the experimentally determined pH of mitochondria in consideration of potential applications to mitigating neuronal oxidative stress. Initial experiments were conducted in a 5:1 ratio of CD3CN and buffer (Scheme 3). Reaction progress was monitored by ^1H NMR through following the disappearance of the signals for diastereotopic hydrogens from the methylene group in the starting materials and the appearance of the corresponding enantiotopic hydrogens in butanone. Conversions were calculated by comparison to the internal standard 1,2-dimethoxyethane.

[2] = as above; assay type: physicochemical; conditions: urea.H2O2 300 mM
[3] = ~25 mM substrate, urea.H2O2 300 mM, CD3CN:buffer 5:1, pH 8.0

| yield of released product (1H NMR vs internal standard) [1] [%] | half-life [1] [min] | oxidative breakdown / cargo release (in words) [1] | SMILES | other results |
| --- | --- | --- | --- | --- |
|  |  |  | CCC(C)(OCOC)B1OC(C)(C)C(C)(C)O1 (centres unmarked) [Compound 7] | NMR yield of butanone ([1]; urea.H2O2 300 mM, CD3CN:buffer 5:1, pH 8.0): 79%; time for consumption of 50% of the starting material [1, 3]: less than 2 min; NMR yield of butanone ([2]; CD3CN:buffer 1:1): 84%; NMR yield of butanone ([2]; pH 7.2): 81% |
|  |  |  | CCC(C)(OC(=O)Oc1ccccc1)B1OC(C)(C)C(C)(C)O1 (centres unmarked) [Compound 8] | yield of the desired products ([1]; urea.H2O2 300 mM, CD3CN:buffer 5:1): 84%; time for consumption of 50% of the starting material [1, 3]: 22 min; time for consumption of 50% of the starting material ([2]; CD3CN:buffer 1:1): ≤ 12 min; yield of the desired products ([2]; CD3CN:buffer 1:1): 84% |
| 84 | < 2 | released smoothly | CCC(C)(OCOC1CCCCC1)B1OC(C)(C)C(C)(C)O1 (centres unmarked) [Compound 11] |  |
| 85 | < 2 | released smoothly | CCC(C)(OCO[C@@H]1C[C@H](C)CC[C@H]1C(C)C)B1OC(C)(C)C(C)(C)O1 (some centres unmarked) [Compound 13] |  |
| 89 | < 2 |  | CCC(C)(OCC(C)C)B1OC(C)(C)C(C)(C)O1 (centres unmarked) [Compound 17] |  |
| 83 | < 2 |  | CC(C)C(OC1CCCCC1)B1OC(C)(C)C(C)(C)O1 (centres unmarked) [Compound 19] |  |
| 16 | > 936 |  | CCC(C)(OC(=O)c1ccccc1)B1OC(C)(C)C(C)(C)O1 (centres unmarked) [Compound 22] |  |
|  |  |  | COc1ccc([C@H]2OCC[C@](C)(B3OC(C)(C)C(C)(C)O3)O2)cc1 [Compound 28] | time for consumption of 50% of the starting material ([1]; H2O2, pH 8.0): ≤ 1.5 min; time to complete conversion ([1]; H2O2, pH 8.0): < 15 min; yield of anisaldehyde and 1-hydroxy-3-butanone ([1]; H2O2, pH 8.0): 94% |
|  |  | quickly and efficiently | CC1(B2OC(C)(C)C(C)(C)O2)CCOC(c2ccccc2)(c2ccccc2)O1 (centres unmarked) [Compound 29] |  |

| SMILES | yield of released product (1H NMR vs internal standard) [1] [%] | half-life [1] [min] | oxidative breakdown / cargo release (in words) [1] | other results |
| --- | --- | --- | --- | --- |
| CCOC(C)(CCc1ccc(O[Si](C)(C)C(C)(C)C)cc1)B1OC(C)(C)C(C)(C)O1 (centres unmarked) [Compound 15] | 89 | < 2 |  |  |
| Cc1c(C)c2c(c(C)c1OC(=O)OC(C)(CCO[Si](C)(C)C(C)(C)C)B1OC(C)(C)C(C)(C)O1)CCC(C)(C)O2 (centres unmarked) [Compound 20] | 79 | 90 | somewhat slow |  |
